Test results published in patent US6806230B1, “Pyrimidine derivatives and herbicides containing them” (Kumiai Chemical Industry Co., Ltd., priority 1999, dated 2004).

Columns and labels:
Type in all cases: in vivo
barnyard grass (Eo) [1] = experiment: Test Example 1: herbicidal effects by flooded paddy field treatment; set-up: herbicidal effects, Eo (barnyard grass):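 0-5 growth inhibition grade; 5 = over 90%; 4 = 70-90%; 3 = 50-70%; 2 = 30-50%; 1 = 10-30%; 0 = under 10%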; settings: for Herbicidal effect index, Eo: dose 100 gai/10a, examined on 21st day after treatment, index 0-5 per Table 44; for herbicidal effects, Eo (barnyard grass): dose 100 g active ingredient per 10 ares, examined on the 21st day after treatment, standards of Table 44;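 on Herbicidal effect index, Eo: 0-5 growth inhibition grade; 5 = over 90%; 4 = 70-90%; 3 = 50-70%; 2 = 30-50%; 1 = 10-30%; 0 = under 10%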
In short: (§1)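 Seeds were sown in puddled paddy soil in pots and flooded to 3 cm. The next day a water-diluted wettable powder was dripped onto the water surface at 100 g active ingredient per 10 ares. Plants grew in a greenhouse, and herbicidal effect was scored on a rating scale 21 days after treatment.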

rice (Or) = experiment: Test Example 4: selectivity for a crop plant by flooded paddy field treatment; set-up: scale not given here; settings: rice transplanted at second leaf stage; for Or (herbicidal effect index on crop): dose 25 gai/10a, 21st day after treatment, index per Table 44
In short: (§2)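 Paddy soil in pots was puddled, weed seeds were sown, second-leaf-stage rice was transplanted, and the pots were flooded to 3 cm. The next day a water-diluted wettable powder was dropped onto the water surface at 25 g active ingredient per 10 ares. Herbicidal effect was scored on a rating scale 21 days after treatment in a greenhouse.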

barnyard grass (Eo) [2] = experiment: as above; set-up: scale not given here; settings: for Eo (herbicidal effect index): barnyard grass, dose 25 gai/10a, 21st day after treatment, index per Table 44
In short: as §2

monochoria (Mo) [3] = experiment: as above; set-up: scale not given here; settings: for Mo (herbicidal effect index): monochoria, dose 25 gai/10a, 21st day after treatment, index per Table 44
In short: as §2

green foxtail (Se) = experiment: Test Example 2: herbicidal effects by upland soil treatment; settings: dose 100 g active ingredient per 10 ares, examined on the 21st day after treatment, standards of Table 44;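 further: 0-5 growth inhibition grade; 5 = over 90%; 4 = 70-90%; 3 = 50-70%; 2 = 30-50%; 1 = 10-30%; 0 = under 10%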
Procedure: In a 80 cm^2 plastic pot, upland soil was filled, and seeds of barnyard grass (Ec) and green foxtail (Se) were sown and covered with soil. A wettable powder prepared in accordance with Formulation Example 1 was diluted with water and uniformly applied to the soil surface by means of a small size spray at a rate of 100 l per 10 ares, so that the dose of the active ingredient would be 100 g per 10 ares. Thereafter, cultivation was carried out in a green house, and on the 21st day after the treatment, the herbicidal effects were examined in accordance with the standards as identified in Table 44.

monochoria (Mo) [4] = experiment: Test Example 1: herbicidal effects by flooded paddy field treatment; set-up: herbicidal effects, Mo (monochoria):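 0-5 growth inhibition grade; 5 = over 90%; 4 = 70-90%; 3 = 50-70%; 2 = 30-50%; 1 = 10-30%; 0 = under 10%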; settings: for Herbicidal effect index, Mo: dose 100 gai/10a, examined on 21st day after treatment, index 0-5 per Table 44; for herbicidal effects, Mo (monochoria): dose 100 g active ingredient per 10 ares, examined on the 21st day after treatment, standards of Table 44;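 on Herbicidal effect index, Mo: 0-5 growth inhibition grade; 5 = over 90%; 4 = 70-90%; 3 = 50-70%; 2 = 30-50%; 1 = 10-30%; 0 = under 10%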
In short: as §1

barnyard grass (Ec) = experiment: Test Example 2: herbicidal effects by upland soil treatment; set-up: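 0-5 growth inhibition grade; 5 = over 90%; 4 = 70-90%; 3 = 50-70%; 2 = 30-50%; 1 = 10-30%; 0 = under 10%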; settings: dose 100 g active ingredient per 10 ares, examined on the 21st day after treatment, standards of Table 44
In short: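 Pre-emergence test: barnyard grass and green foxtail sown in upland soil, then soil surface sprayed with wettable-powder formulation at 100 g active ingredient per 10 ares (100 l per 10 ares). Grown in greenhouse; herbicidal effect scored on a rating scale 21 days after treatment.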

[5] = dose 25 g active ingredient per 10 ares, examined on the 21st day after treatment

SMILES	Herbicidal effect index, Eo (barnyard grass (Eo) [1])	Or (effect on crop plant rice, index) (rice (Or); [5])	Eo (herbicidal effects, index) (barnyard grass (Eo) [2]; [5])	Mo (herbicidal effects, index) (monochoria (Mo) [3]; [5])	herbicidal effects, Se (green foxtail) (green foxtail (Se))	Herbicidal effect index, Mo (monochoria (Mo) [4])	herbicidal effects, Ec (barnyard grass) (barnyard grass (Ec))	herbicidal effects, Eo (barnyard grass) (barnyard grass (Eo) [1])	Or (herbicidal effect index on crop) (rice (Or))	Eo (herbicidal effect index) (barnyard grass (Eo) [2])	Mo (herbicidal effect index) (monochoria (Mo) [3])	herbicidal effects, Mo (monochoria) (monochoria (Mo) [4])
CC(C)C(c1cncnc1C(F)(F)Cl)N(C)C(=O)Sc1ccccc1 (racemic) [Compound 1-17]	5	1	5	5	4	5	4					
Cc1cccc(OCC(=O)N(C)C(c2cncnc2C(F)(F)F)C(C)C)c1 (racemic) [Compound 1-135]					5		5	5	1	5	5	5
CC(C)C(c1cncnc1C(F)(F)F)N(C)C(=O)Cc1ccc(F)cc1F (racemic) [Compound 1-147]					5		5	5	1	5	5	5
CCN(C(=O)Cc1ccc(Cl)cc1)C(c1cncnc1C(F)F)C(C)C (racemic) [Compound 1-170]					5		5	5	1	5	5	5
Cc1ccccc1OCC(=O)N(C)C(c1cncnc1C(F)(F)F)C(C)C (racemic) [Compound 1-134]					5		5	5	0	5	5	5
CCN(C(=O)Cc1ccccc1)C(c1cncnc1C(F)F)C(C)C (racemic) [Compound 1-168]					5		5	5	1	5	5	5
CC(C)C(c1cncnc1C(F)(F)F)N(C)C(=O)COc1cccc(F)c1 (racemic) [Compound 1-126]	5				5	5	5		1	5	5	
CC(C)C(c1cncnc1C(F)(F)F)N(C(=O)Cc1ccccc1)C(C)C (racemic) [Compound 1-103]	5				5	5	5		1	5	5	
Cc1ncncc1C(N(C)C(=O)Cc1ccc(F)cc1)C(C)(C)C (racemic) [Compound 1-160]					5		5	5				5
CC(C)C(c1cncnc1C1CC1)N(C)C(=O)Cc1ccc(F)cc1 (racemic) [Compound 1-101]	5				5	5	5					
CC(C)c1ncncc1C(C(C)C)N(C)C(=O)Cc1ccccc1 (racemic) [Compound 1-128]					5		5	5				4
CCCC(c1cncnc1C(F)(F)F)N(C)C(=O)Cc1ccc(Cl)cc1 (racemic) [Compound 1-114]	5				5	5	5					
CN(C(=O)Cc1ccc(F)cc1)C(c1cncnc1C(F)(F)F)C1CCCC1 (racemic) [Compound 1-138]					5		5	5				5
Cc1ccc(NC(=O)N(C)C(c2cncnc2C(F)(F)Cl)C(C)C)cc1 (stereo not drawn) [Compound 1-37, N-methyl-N-[2-methyl-1-(4-chlorodifluoromethylpyrimidin-5-yl)propyl]-N′-(4-methylphenyl)urea]	5				5	5	5					
CCC(c1cncnc1C(F)(F)F)N(C)C(=O)Cc1ccccc1 (racemic) [Compound 1-32]	5				5	5	5					
CCN(C(=O)Cc1ccc(C(F)(F)F)cc1)C(c1cncnc1C(F)(F)F)C(C)C (racemic) [1-174]					5		5	5				5
CC(C)C(c1cncnc1C(F)F)N(C)C(=O)Cc1ccccc1 (racemic) [Compound 1-163]					5		5	5				5
COC(C(=O)N(C)C(c1cncnc1C(F)(F)F)C(C)C)c1ccc(Cl)cc1 (mixture of isomers) [Compound 1-155]					4		4	5				5
CC(C)C(c1cncnc1C(F)(F)F)N(C)C(=O)Oc1ccc(F)cc1 (racemic) [1-177]					4		4	5				5
CCN(C(=O)Cc1cccc(F)c1)C(c1cncnc1C(F)(F)F)C(C)C (racemic) [1-173]					5		5	5				5
CN(C(=O)Cc1ccc(F)cc1)C(c1ccc(Cl)cc1)c1cncnc1C(F)(F)F (racemic) [1-222]					5		5	5				5
CN(C(=O)Cc1ccc(F)cc1)C(c1cncnc1C(F)(F)F)C1CC1 (racemic) [Compound 1-35]	5				5	5	5					
Cc1ccc(CC(=O)N(C)C(c2cncnc2C2CC2)C(C)C)cc1 (racemic) [Compound 1-102]	5				5	5	5					
CC(C)C(c1cncnc1)N(C)C(=O)Cc1ccc(Cl)cc1 (racemic) [Compound 1-90]	5				5	5	5					
